Assay results from ChEMBL document CHEMBL1145525, “Discovery of antiandrogen activity of nonsteroidal scaffolds of marketed drugs” (Proc Natl Acad Sci U S A, 2007).
The source made the active and inactive calls. The rule behind the calls is not given here.

Assays:
[1] = target: T1, Androgen receptor (Rattus norvegicus, UniProt P15207); assay: Displacement of [3H]mibolerone from rat androgen receptor
T1 sequence (P15207 whole entry): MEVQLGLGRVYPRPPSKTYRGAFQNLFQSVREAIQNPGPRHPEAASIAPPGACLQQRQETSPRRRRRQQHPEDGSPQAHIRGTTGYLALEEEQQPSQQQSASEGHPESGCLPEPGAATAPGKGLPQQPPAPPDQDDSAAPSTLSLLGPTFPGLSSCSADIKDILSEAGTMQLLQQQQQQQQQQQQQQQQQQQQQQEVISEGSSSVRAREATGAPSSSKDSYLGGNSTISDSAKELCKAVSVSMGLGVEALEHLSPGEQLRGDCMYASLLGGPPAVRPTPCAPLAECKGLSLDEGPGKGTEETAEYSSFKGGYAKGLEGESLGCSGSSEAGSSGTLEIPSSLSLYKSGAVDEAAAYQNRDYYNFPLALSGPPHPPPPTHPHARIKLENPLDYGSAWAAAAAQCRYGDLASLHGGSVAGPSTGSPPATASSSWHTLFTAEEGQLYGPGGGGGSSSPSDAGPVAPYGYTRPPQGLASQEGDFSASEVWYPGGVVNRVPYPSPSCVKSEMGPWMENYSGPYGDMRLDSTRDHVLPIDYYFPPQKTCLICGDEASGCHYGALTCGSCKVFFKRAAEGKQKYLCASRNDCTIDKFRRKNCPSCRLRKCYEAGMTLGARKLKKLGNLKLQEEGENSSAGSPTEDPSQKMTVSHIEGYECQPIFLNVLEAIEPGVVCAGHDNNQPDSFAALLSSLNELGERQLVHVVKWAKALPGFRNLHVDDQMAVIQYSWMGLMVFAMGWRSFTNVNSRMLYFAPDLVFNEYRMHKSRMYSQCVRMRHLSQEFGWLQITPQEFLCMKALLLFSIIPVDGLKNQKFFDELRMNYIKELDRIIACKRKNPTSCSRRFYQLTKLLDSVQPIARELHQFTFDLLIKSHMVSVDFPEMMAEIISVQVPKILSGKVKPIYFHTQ

[2] = target: 5-hydroxytryptamine receptor 2A (Homo sapiens) (UniProt P28223); assay: Displacement of [3H]ketanserin from human dopamine 5HT2A receptor expressed in CHO-K1 cells upto 1 uM; type: cell-based
5-hydroxytryptamine receptor 2A (Homo sapiens), sequence (P28223 whole entry): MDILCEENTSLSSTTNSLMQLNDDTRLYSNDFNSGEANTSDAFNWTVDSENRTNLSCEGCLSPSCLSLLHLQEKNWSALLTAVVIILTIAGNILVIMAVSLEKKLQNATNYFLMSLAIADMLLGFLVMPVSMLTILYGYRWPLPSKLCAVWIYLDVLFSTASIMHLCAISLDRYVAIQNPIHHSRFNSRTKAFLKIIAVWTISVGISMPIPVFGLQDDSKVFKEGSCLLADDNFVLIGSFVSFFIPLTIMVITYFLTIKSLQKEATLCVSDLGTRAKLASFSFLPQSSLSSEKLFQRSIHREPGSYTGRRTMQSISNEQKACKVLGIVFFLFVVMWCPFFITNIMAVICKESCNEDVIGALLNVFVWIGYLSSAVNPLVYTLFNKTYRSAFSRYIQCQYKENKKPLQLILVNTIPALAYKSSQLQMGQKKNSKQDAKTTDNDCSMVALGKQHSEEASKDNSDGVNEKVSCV

[3] = target: D(2) dopamine receptor (Homo sapiens) (UniProt P14416); assay: Displacement of [3H]spiperone from human dopamine D2L receptor expressed in CHO FlpIn cells upto 1 uM; type: cell-based
D(2) dopamine receptor (Homo sapiens), sequence (P14416 whole entry): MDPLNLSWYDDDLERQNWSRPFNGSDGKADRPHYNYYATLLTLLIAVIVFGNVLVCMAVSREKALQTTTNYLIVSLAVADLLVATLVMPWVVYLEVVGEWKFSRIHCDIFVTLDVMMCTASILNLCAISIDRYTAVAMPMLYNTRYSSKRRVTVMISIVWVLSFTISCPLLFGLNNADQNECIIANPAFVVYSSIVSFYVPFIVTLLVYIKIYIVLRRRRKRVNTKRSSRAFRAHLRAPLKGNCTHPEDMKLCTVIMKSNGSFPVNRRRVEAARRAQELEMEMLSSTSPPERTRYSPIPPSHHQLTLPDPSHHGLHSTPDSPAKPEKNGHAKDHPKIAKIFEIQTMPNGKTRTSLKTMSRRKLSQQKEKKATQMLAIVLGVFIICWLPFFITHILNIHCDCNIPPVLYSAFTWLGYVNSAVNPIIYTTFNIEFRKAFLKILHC

[4] = target: T2, Androgen receptor (Homo sapiens, UniProt P10275); assay: Inhibition of wild type androgen receptor expressed in CV1 cells assessed as dihydrotestosterone-stimulated transactivation by CAT reporter gene assay; type: cell-based, CV-1
T2 sequence (P10275 whole entry): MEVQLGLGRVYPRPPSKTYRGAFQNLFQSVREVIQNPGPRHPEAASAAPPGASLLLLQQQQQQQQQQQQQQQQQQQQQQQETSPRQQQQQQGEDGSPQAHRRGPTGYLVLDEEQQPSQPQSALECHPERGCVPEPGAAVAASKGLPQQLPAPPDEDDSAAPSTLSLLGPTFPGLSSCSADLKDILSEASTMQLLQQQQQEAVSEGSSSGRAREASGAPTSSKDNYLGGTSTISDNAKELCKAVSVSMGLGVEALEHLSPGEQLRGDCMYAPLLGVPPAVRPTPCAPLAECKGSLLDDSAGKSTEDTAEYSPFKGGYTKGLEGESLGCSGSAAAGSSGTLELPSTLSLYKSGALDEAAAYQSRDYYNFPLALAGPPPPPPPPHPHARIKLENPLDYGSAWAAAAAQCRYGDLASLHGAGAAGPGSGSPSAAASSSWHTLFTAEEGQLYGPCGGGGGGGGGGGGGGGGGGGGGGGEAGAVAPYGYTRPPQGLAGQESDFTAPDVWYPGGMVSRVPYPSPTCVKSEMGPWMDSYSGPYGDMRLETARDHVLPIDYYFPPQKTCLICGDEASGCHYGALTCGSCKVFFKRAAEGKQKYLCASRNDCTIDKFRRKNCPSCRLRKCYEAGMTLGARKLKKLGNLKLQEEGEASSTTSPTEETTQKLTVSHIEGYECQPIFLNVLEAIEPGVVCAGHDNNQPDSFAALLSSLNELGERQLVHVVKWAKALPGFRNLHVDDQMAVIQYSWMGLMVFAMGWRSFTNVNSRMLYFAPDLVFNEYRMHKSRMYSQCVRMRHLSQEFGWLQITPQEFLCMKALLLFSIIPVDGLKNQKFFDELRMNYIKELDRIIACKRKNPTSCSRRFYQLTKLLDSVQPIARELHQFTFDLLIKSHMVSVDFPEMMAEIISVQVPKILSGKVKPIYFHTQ

[5] = system: LNCaP; assay: Reduction of prostate specific antigen expression level in human LNCaP cells at 10 uM; type: functional; parameters: scale not given: the % may be the effect or the level left
[6] = target: T3, 5-hydroxytryptamine receptor 2C (Homo sapiens) (UniProt P28335); assay: Displacement of [3H]mesulergine from human dopamine 5HT2C receptor expressed in CHO-K1 cells upto 1 uM; type: cell-based
T3 sequence (whole entry): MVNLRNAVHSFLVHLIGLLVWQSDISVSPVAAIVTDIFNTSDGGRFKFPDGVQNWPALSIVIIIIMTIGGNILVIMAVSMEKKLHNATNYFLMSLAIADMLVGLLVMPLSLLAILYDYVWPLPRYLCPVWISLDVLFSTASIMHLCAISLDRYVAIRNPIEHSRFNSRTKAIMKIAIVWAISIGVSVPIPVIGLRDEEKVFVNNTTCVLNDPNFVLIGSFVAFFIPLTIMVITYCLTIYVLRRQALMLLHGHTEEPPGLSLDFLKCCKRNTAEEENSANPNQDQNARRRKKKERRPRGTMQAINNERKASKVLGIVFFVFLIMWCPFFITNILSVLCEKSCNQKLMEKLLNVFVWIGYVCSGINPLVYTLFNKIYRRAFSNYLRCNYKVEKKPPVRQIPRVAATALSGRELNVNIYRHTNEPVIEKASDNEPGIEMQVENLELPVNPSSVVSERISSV

[7] = system: LNCaP; assay: Increase in prostate specific antigen expression level in human LNCaP cells at 1 uM; type: functional, cell-based
[8] = system: PC-3; assay: Cytotoxicity against human PC3 cells upto 10 uM by SRB assay; type: functional, cell-based
[9] = system: HeLa; assay: Effect on translocation of androgen receptor from cytoplasm to nucleus in human HeLa cells at 1 uM in presence of dihydrotestosterone; type: functional

Ki [1] | Activity [2] | Activity [3] | IC50 ([4]; read-out: IC50) | IC50 ([4]; read-out: Log IC50 (converted)) | Activity [6] | Structure (SMILES) | Activity [5] | Activity [7] | Activity [8] | Activity [9]
3000 nM | – | – | – | – | – | N#Cc1ccc2c(c1)N(CCCN1CCC(O)CC1)c1ccccc1S2 [PERICIAZINE] | – | – | – | –
– | inactive | inactive | 250 nM | 251 nM | inactive | O=C(CN1c2ccccc2Sc2ccc(C(F)(F)F)cc21)c1cccc2ccccc12 | >80% | Active | inactive | >90%
